Measurements as given in patent publication US10508104B2, “6-hydroxy-5-(phenyl/heteroarylsulfonyl)pyrimidin-4(1H)-one as APJ agonists” (Bristol-Myers Squibb Company, priority 2016, dated 2019).

Target: human APJ receptor (Homo sapiens (Human), UniProt P35414)
Experiment: Intracellular cAMP accumulation assay (APJ hcAMP, HTRF)
Format: cell-based
Conditions: HEK293 cells stably expressing human APJ receptor; inhibition of forskolin-mediated cAMP production; read-out: Human APJ cAMP EC50 Potency range
How it was run: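 HEK293 cells stably expressing human APJ, 5,000 per well, incubated 30 min at rt with compound, […] and 2 μM forskolin. cAMP measured by HTRF against a cAMP standard curve as inhibition of forskolin-driven production. EC50 from variable-slope sigmoidal fit.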

Sequence of human APJ receptor (P35414 whole entry): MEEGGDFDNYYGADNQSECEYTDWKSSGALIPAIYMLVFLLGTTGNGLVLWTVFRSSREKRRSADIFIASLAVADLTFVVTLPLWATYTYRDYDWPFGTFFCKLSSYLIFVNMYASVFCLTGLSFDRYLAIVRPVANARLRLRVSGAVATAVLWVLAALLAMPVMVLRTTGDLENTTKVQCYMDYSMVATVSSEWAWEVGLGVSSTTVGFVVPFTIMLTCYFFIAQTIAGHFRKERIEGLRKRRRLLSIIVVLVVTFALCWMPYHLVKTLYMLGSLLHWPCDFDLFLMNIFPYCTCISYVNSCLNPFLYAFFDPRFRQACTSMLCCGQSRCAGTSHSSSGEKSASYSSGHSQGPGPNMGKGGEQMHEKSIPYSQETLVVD

For `CCCCc1nc(=O)c(S(=O)(=O)c2ccc(-c3ccnc(F)c3C)cc2)c(O)n1[C@H]1CCc2c(C#N)cccc21` [Example 537, (1S)-1-{2-butyl-5-[4-(2-fluoro-3-methylpyridin-4-yl)benzenesulfonyl]-6-hydroxy-4-oxo-1,4-dihydropyrimidin-1-yl}-2,3-dihydro-1H-indene-4-carbonitrile], which EC50 is on record?
Its EC50 is 0.01 to 10 nM.

`CCCCc1nc(=O)c(S(=O)(=O)c2ccc(Br)cc2)c(O)n1-c1c(OC)cccc1OC` [Example 1, 5-((4-Bromophenyl)sulfonyl)-2-butyl-1-(2,6-dimethoxyphenyl)-6-hydroxypyrimidin-4(1H)-one] was tested. Which EC50 did it give?
Its EC50 is 0.01 to 10 nM.

With `COC[C@@H](c1cccc(C#N)c1)n1c(COC(C)C)nc(=O)c(S(=O)(=O)c2ccc(-c3cccnc3C)cc2)c1O` [Example 390, 3-[(1R)-1-{6-hydroxy-5-[4-(2-methylpyridin-3-yl)benzenesulfonyl]-4-oxo-2-[(propan-2-yloxy)methyl]-1,4-dihydropyrimidin-1-yl}-2-methoxyethyl]benzonitrile] as the compound, how does the EC50 read?
The EC50 was 0.01 to 10 nM.

With `CCOCc1nc(=O)c(S(=O)(=O)c2ccc(-c3ccc(F)nc3C)c(F)c2)c(O)n1C(COC)c1cccc(F)c1` (stereo not shown) [Example 375, 2-(ethoxymethyl)-5-[3-fluoro-4-(6-fluoro-2-methylpyridin-3-yl)benzenesulfonyl]-1-[1-(3-fluorophenyl)-2-methoxyethyl]-6-hydroxy-1,4-dihydropyrimidin-4-one] as the compound, how does the EC50 read?
Its EC50 is 0.01 to 10 nM.

How did the EC50 turn out when `CCCCc1nc(=O)c(S(=O)(=O)c2ccc(-c3ccnc(F)c3C)cc2)c(O)n1[C@@H]1CCc2ccc(C#N)cc21` [Example 542, (3R)-3-{2-butyl-5-[4-(2-fluoro-3-methylpyridin-4-yl)benzenesulfonyl]-6-hydroxy-4-oxo-1,4-dihydropyrimidin-1-yl}-2,3-dihydro-1H-indene-5-carbonitrile] was run?
The EC50 was 10 to 100 nM.

With `CCCCc1nc(=O)c(S(=O)(=O)c2ccc(-c3cnc(OC)nc3OC)cc2)c(O)n1[C@@H](CC)c1cccc(C#N)c1` [Example 508, 3-[(1S)-1-{2-butyl-5-[4-(2,4-dimethoxypyrimidin-5-yl)benzenesulfonyl]-6-hydroxy-4-oxo-1,4-dihydropyrimidin-1-yl}propyl]benzonitrile] as the compound, how does the EC50 read?
Its EC50 is 0.01 to 10 nM.

How did the EC50 turn out when `CCCCc1nc(=O)c(S(=O)(=O)c2ccc(-c3ccccc3C#N)cn2)c(O)n1[C@@H](CC)c1cccc(C#N)c1` [Example 463, 2-[6-({2-butyl-1-[(1S)-1-(3-cyanophenyl)propyl]-6-hydroxy-4-oxo-1,4-dihydropyrimidin-5-yl}sulfonyl)pyridin-3-yl]benzonitrile] was run?
Its EC50 is 0.01 to 10 nM.

`CCCCc1nc(=O)c(S(=O)(=O)c2ccc(-c3ccccc3C(=O)NC3CC3)cc2)c(O)n1[C@H](c1cccc(C#N)c1)C1CC1` [Example 533, 4′-({2-butyl-1-[(S)-(3-cyanophenyl)(cyclopropyl)methyl]-6-hydroxy-4-oxo-1,4-dihydropyrimidin-5-yl}sulfonyl)-N-cyclopropyl-[1,1′-biphenyl]-2-carboxamide] was tested. Which EC50 did it give?
Its EC50 is 0.01 to 10 nM.

How did the EC50 turn out when `CC[C@@H](c1cccc(C#N)c1)n1c(COC(C)C)nc(=O)c(S(=O)(=O)c2ccc(Br)cc2)c1O` [Example 369, 3-[(1S)-1-[5-(4-bromobenzenesulfonyl)-6-hydroxy-4-oxo-2-[(propan-2-yloxy)methyl]-1,4-dihydropyrimidin-1-yl]propyl]benzonitrile] was run?
The EC50 was 0.01 to 10 nM.

Same assay, conditions: human APJ, cAMP accumulation; read-out: Human APJ cAMP EC50 Potency range

How did the EC50 turn out when `CCCCc1nc(=O)c(S(=O)(=O)c2ccc(-c3ccncc3C)cc2)c(O)n1[C@@H](CC)c1ccc(C#N)cc1` [Example 265, 4-[(1S)-1-{2-butyl-6-hydroxy-5-[4-(3-methylpyridin-4-yl)benzenesulfonyl]-4-oxo-1,4-dihydropyrimidin-1-yl}propyl]benzonitrile] was run?
Its EC50 is 0.01 to 10 nM.

With `CCCCc1nc(=O)c(S(=O)(=O)c2ccc(-c3ccc(F)nc3C)cc2)c(O)n1[C@@H](C)c1ccc(OC)cc1` [Example 233, 2-butyl-5-[4-(6-fluoro-2-methylpyridin-3-yl)benzenesulfonyl]-6-hydroxy-1-[(1S)-1-(4-methoxyphenyl)ethyl]-1,4-dihydropyrimidin-4-one] as the compound, how does the EC50 read?
The EC50 was 0.01 to 10 nM.

`CCCCc1nc(=O)c(S(=O)(=O)c2ccc(-c3cncc(F)c3)cc2)c(O)n1[C@@H](CC)c1cccc2c1OCO2` [Example 258, 1-[(1S)-1-(2H-1,3-benzodioxol-4-yl)propyl]-2-butyl-5-[4-(5-fluoropyridin-3-yl)benzenesulfonyl]-6-hydroxy-1,4-dihydropyrimidin-4-one] was tested. Which EC50 did it give?
The EC50 was 0.01 to 10 nM.

With `CCCCc1nc(=O)c(S(=O)(=O)c2ccc(-n3cc(Cl)ccc3=O)cc2)c(O)n1[C@@H](COC)c1ccccc1` [Example 288, 2-butyl-5-[4-(5-chloro-2-oxo-1,2-dihydropyridin-1-yl)benzenesulfonyl]-6-hydroxy-1-[(1R)-2-methoxy-1-phenylethyl]-1,4-dihydropyrimidin-4-one] as the compound, how does the EC50 read?
Its EC50 is 0.01 to 10 nM.

Which EC50 does the source give for `COC[C@@H](c1ccccc1)n1c(COC(C)C)nc(=O)c(S(=O)(=O)c2ccc(-c3ccnc(F)c3C)cc2)c1O` [Example 327, 5-[4-(2-fluoro-3-methylpyridin-4-yl)benzenesulfonyl]-6-hydroxy-1-[(1R)-2-methoxy-1-phenylethyl]-2-[(propan-2-yloxy)methyl]-1,4-dihydropyrimidin-4-one] here?
The EC50 was 0.01 to 10 nM.

With `CC[C@@H](c1ccccc1)n1c(COC(C)C)nc(=O)c(S(=O)(=O)c2ccc(-c3ccncc3C)cc2)c1O` [Example 314, 6-hydroxy-5-[4-(3-methylpyridin-4-yl)benzenesulfonyl]-1-[(1S)-1-phenylpropyl]-2-[(propan-2-yloxy)methyl]-1,4-dihydropyrimidin-4-one] as the compound, how does the EC50 read?
Its EC50 is 0.01 to 10 nM.

`CCOCc1nc(=O)c(S(=O)(=O)c2ccc(Br)c(F)c2)c(O)n1C(COC)c1cccc(F)c1` (stereo not shown) [Example 298, 5-(4-bromo-3-fluorobenzenesulfonyl)-2-(ethoxymethyl)-1-[1-(3-fluorophenyl)-2-methoxyethyl]-6-hydroxy-1,4-dihydropyrimidin-4-one] was tested. Which EC50 did it give?
Its EC50 is 0.01 to 10 nM.

Same assay, conditions: human APJ, intracellular cAMP accumulation; read-out: Human APJ cAMP EC50 Potency range

Which EC50 does the source give for `CCCCc1nc(=O)c(S(=O)(=O)c2ccc(-c3cncc(F)c3)cc2)c(O)n1[C@H]1CCc2ccccc21` [Example 168, 2-butyl-1-[(1S)-2,3-dihydro-1H-inden-1-yl]-5-[4-(5-fluoropyridin-3-yl)benzenesulfonyl]-6-hydroxy-1,4-dihydropyrimidin-4-one] here?
Its EC50 is 0.01 to 10 nM.

How did the EC50 turn out when `COC[C@@H](c1ccccc1)n1c(CC2CC2)nc(=O)c(S(=O)(=O)c2ccc(-c3ccncc3C)cc2)c1O` [Example 178, 2-(cyclopropylmethyl)-6-hydroxy-1-[(1R)-2-methoxy-1-phenylethyl]-5-[4-(3-methylpyridin-4-yl)benzenesulfonyl]-1,4-dihydropyrimidin-4-one] was run?
The EC50 was 0.01 to 10 nM.

With `CCCCc1nc(=O)c(S(=O)(=O)c2ccc(-c3ccncc3C)cc2)c(O)n1[C@@H](C)c1cccc(C#N)c1` [Example 142, 3-[(1S)-1-{2-butyl-6-hydroxy-5-[4-(3-methylpyridin-4-yl)benzenesulfonyl]-4-oxo-1,4-dihydropyrimidin-1-yl}ethyl]benzonitrile] as the compound, how does the EC50 read?
The EC50 was 0.01 to 10 nM.

For `CCCCc1nc(=O)c(S(=O)(=O)c2ccc(-n3cc(C)ccc3=O)cc2)c(O)n1-c1c(CC)cccc1CC` [Example 78, 2-butyl-1-(2,6-diethylphenyl)-6-hydroxy-5-[4-(5-methyl-2-oxo-1,2-dihydropyridin-1-yl)benzenesulfonyl]-1,4-dihydropyrimidin-4-one], which EC50 is on record?
Its EC50 is 0.01 to 10 nM.

`CCCCc1nc(=O)c(S(=O)(=O)c2ccc(-c3cnc(F)c(Cl)c3)cc2)c(O)n1-c1c(OC)cccc1OC` [Example 37, 2-butyl-5-[4-(5-chloro-6-fluoropyridin-3-yl)benzenesulfonyl]-1-(2,6-dimethoxyphenyl)-6-hydroxy-1,4-dihydropyrimidin-4-one] was tested. Which EC50 did it give?
Its EC50 is 0.01 to 10 nM.

With `CCCCc1nc(=O)c(S(=O)(=O)c2ccc(-c3cc(C)nc(C)c3)cc2)c(O)n1[C@@H](COC)c1ccccc1` [Example 154, 2-butyl-5-[4-(2,6-dimethylpyridin-4-yl)benzenesulfonyl]-6-hydroxy-1-[(1R)-2-methoxy-1-phenylethyl]-1,4-dihydropyrimidin-4-one] as the compound, how does the EC50 read?
The EC50 was 10 to 100 nM.

`COc1cccc(OC)c1-n1c(CCC(C)C)nc(=O)c(S(=O)(=O)c2ccccc2-c2ccc(F)cc2)c1O` [Example 21, 1-(2,6-dimethoxyphenyl)-5-[2-(4-fluorophenyl)benzene-sulfonyl]-6-hydroxy-2-(3-methylbutyl)-1,4-dihydropyrimidin-4-one] was tested. Which EC50 did it give?
Its EC50 is 10 to 100 nM.

For `CCOCc1nc(=O)c(S(=O)(=O)c2ccc(C3CC3)cc2)c(O)n1-c1c(CC)cccc1CC` [Example 88, 5-(4-cyclopropylbenzene-sulfonyl)-1-(2,6-diethylphenyl)-2-(ethoxymethyl)-6-hydroxy-1,4-dihydropyrimidin-4-one], which EC50 is on record?
The EC50 was 0.01 to 10 nM.

With `CCCCc1nc(=O)c(S(=O)(=O)c2ccc(-c3ccc4c(ccn4C)c3)cc2)c(O)n1-c1c(OC)cccc1OC` [Example 53, 2-butyl-1-(2,6-dimethoxyphenyl)-6-hydroxy-5-[4-(1-methyl-1H-indol-5-yl)benzenesulfonyl]-1,4-dihydropyrimidin-4-one] as the compound, how does the EC50 read?
The EC50 was 0.01 to 10 nM.

`COc1cccc(OC)c1-n1c(C2CCCC2)nc(=O)c(S(=O)(=O)c2ccc(C)cc2)c1O` [Example 63, 2-cyclopentyl-1-(2,6-dimethoxyphenyl)-6-hydroxy-5-(4-methylbenzenesulfonyl)-1,4-dihydropyrimidin-4-one] was tested. Which EC50 did it give?
Its EC50 is 0.01 to 10 nM.

With `CCCCc1nc(=O)c(S(=O)(=O)c2ccc(-c3ccnc(F)c3C)cc2)c(O)n1[C@@H](CC)c1cccc(OC)c1` [Example 169, 2-butyl-5-[4-(2-fluoro-3-methylpyridin-4-yl)benzenesulfonyl]-6-hydroxy-1-[(1S)-1-(3-methoxyphenyl)propyl]-1,4-dihydropyrimidin-4-one] as the compound, how does the EC50 read?
The EC50 was 0.01 to 10 nM.

Which EC50 does the source give for `CCCCc1nc(=O)c(S(=O)(=O)c2ccc(-c3ccc(F)nc3)cc2)c(O)n1[C@@H](C)c1ccccc1` [Example 135, 2-butyl-5-[4-(6-fluoropyridin-3-yl)benzenesulfonyl]-6-hydroxy-1-[(1S)-1-phenylethyl]-1,4-dihydropyrimidin-4-one] here?
Its EC50 is 0.01 to 10 nM.
